The target in test [1] is T1, WW domains of YAP (WW-YAP) (Homo sapiens, UniProt P46937).
T1 construct: which affords the expression of the WW domains of YAP (AAs 165–271); made in house; host or cells: Rosetta E. coli
In words: Static binding assay on peptide-Toyopearl resin, Langmuir isotherm, WW-YAP. To be noted: binding capacity (mg protein/mL resin), PBS pH 7.4, 1 h room temperature, Langmuir fit, average of three independent replicates ± one standard error.
Description: (§1) The known WW-binding peptide sequence [sequence] […] Protein adsorption isotherms were generated by incubating the peptide-functionalized resin with soluble N-terminal YAP or WW-YAP (20 μg/mL–3 mg/mL).
(§2) The supernatants were collected and analyzed by UV spectrophotometry at 280 nm to measure the amount of unbound protein. The amount of protein adsorbed on the resin was determined via mass balance. The KD describing the binding affinity of the soluble protein to the peptide-functionalized resin was determined by fitting the adsorption data to a Langmuir isotherm:(2) q=qmax[C]/KD+[C] where q is the amount of protein adsorbed on the resin (mg protein/mL resin), [C] is the unbound concentration of protein at equilibrium (mg protein/mL solution), qmax is the maximum protein binding capacity (mg protein/mL resin), and KD is the dissociation constant (mg protein/mL solution). Equation (2) was independently fit to the data obtained from triplicate adsorption studies, and the fitted values of KD and qmax were averaged across the repeats.

The target of test [2] is T2, N-terminal YAP (N-YAP) (Homo sapiens, UniProt P46937).
T2 construct: which affords the expression of N-terminal YAP (AAs 1–291); made in house; host or cells: Rosetta E. coli
The test is described as follows: Static binding assay on peptide-Toyopearl resin, Langmuir isotherm, N-terminal YAP. The following applies: binding capacity (mg protein/mL resin), PBS pH 7.4, 1 h room temperature, Langmuir fit, average of three independent replicates ± one standard error.
Description: as §1, §2

The text below walks through data of publication PMC7915732, “Screening of Yeast Display Libraries of Enzymatically Treated Peptides to Discover Macrocyclic Peptide Ligands” (International Journal of Molecular Sciences, 2021).

T2 sequence (P46937 1-291): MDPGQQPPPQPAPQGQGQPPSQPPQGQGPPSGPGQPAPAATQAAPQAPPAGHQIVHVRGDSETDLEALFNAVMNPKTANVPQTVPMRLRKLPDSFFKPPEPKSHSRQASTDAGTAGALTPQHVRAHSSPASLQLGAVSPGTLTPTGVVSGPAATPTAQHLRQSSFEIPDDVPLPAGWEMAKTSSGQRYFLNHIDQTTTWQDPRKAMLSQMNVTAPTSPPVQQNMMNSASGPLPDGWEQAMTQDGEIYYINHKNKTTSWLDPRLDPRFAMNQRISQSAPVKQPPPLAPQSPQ
T1 sequence (P46937 165-271): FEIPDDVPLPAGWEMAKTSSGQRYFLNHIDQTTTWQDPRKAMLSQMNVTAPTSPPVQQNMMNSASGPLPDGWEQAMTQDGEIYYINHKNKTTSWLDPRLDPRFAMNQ

For RYSPPPPYSSHS [PTCH peptide], the “Qmax WW-YAP (resin)” value in test [1] stood at 8.3 ± 0.27 mg/mL. In addition, the “Qmax N-YAP (resin)” value in test [2] stood at 4.11 ± 0.12 mg/mL.
